The conditions of data set [1]: human; liver_microsomes.
The conditions of data set [2]: mouse; liver_microsomes.
Test in data set [3]: not given
This is another data set of the same source.

For data set [4] the following is noted: mdck_mdr1.

A word on the microsomal CLint: it is a measure of how fast metabolising enzymes remove a compound, apart from limits set by blood flow. A low value points to slow turnover. The term kinetic solubility denotes solubility judged after dilution from a stock solution rather than from solid. A word on the logD: it is lipophilicity at a set pH, counting ionised and neutral species. High values mean higher lipophilicity, low ones lower lipophilicity. As usually defined, the Papp is the rate of passage across a membrane or cell layer, normalised by area and donor concentration.

Molecules are shown by their SMILES.

`C[C@H](C(=O)O)[C@H](NC(=O)c1ncnc2[nH]ccc12)c1ccc(Br)cc1` (mixture of isomers) displayed a kinetic solubility of 386 µM. Besides, the microsomal CLint in data set [1] was determined as 5 µL/min/mg. The same compound showed a microsomal CLint in data set [2] of 4 µL/min/mg. The logD in data set [3] was 0.5. This compound also had a Papp in data set [4] of 1.4 ×10⁻⁶ cm/s.

The record behind these values is the ASAP Discovery antiviral challenge data (2025).
